Non-standard residues stand in square brackets, D forms with d. *: point of attachment. ACC = NC(=O)Cc1cc(=O)oc2cc(N*)ccc12
Assays:
Format in all cases: biochemical
MALT1 = molecular target: T1, MALT1 (Homo sapiens, UniProt Q9UDY8); assay: Kinetic assay of ACC fluorogenic substrates (kcat, Km, kcat/Km); settings: 37 °C; 50 mM HEPES, 100 mM NaCl, 0.9 M sodium citrate, 10 mM DTT, pH 7.5; substrate 3.90-150 μM; ACC fluorescence 355/460 nm; average of three measurements
T1 sequence (Q9UDY8 1-824): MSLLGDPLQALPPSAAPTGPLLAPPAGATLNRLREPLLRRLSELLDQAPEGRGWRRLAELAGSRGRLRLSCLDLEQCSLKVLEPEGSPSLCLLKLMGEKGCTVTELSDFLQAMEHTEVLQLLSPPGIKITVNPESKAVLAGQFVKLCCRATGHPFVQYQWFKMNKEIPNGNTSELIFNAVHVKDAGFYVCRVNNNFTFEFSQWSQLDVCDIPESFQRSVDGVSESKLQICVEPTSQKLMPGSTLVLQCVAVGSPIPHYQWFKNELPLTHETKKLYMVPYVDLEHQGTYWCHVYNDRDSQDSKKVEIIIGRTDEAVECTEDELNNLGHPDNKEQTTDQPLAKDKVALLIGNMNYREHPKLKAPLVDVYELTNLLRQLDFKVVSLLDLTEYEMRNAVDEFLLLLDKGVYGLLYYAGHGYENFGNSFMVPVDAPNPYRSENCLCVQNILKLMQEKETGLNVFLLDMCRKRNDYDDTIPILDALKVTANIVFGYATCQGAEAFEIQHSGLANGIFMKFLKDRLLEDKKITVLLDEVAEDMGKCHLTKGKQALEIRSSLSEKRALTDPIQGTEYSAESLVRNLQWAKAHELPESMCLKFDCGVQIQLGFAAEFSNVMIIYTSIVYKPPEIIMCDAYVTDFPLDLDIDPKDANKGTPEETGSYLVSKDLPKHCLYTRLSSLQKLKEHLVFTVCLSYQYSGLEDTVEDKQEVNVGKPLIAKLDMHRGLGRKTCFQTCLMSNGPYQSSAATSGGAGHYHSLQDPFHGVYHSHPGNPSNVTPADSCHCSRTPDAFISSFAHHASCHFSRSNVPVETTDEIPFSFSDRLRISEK
Protocol: Figure 2 MALT1 substrate activity. Panel a. kcat/Km values for MALT1 substrates compared with that of the reference substrate (ALVSR). MALT1 was incubated at 37 °C for 30 minutes and added to the wells containing the substrate at varying concentrations. Relative fluorescence units were measured over time at excitation/emission wavelengths of 355/460 nm for at least 10 minutes. The data represent averages of three separate measurements, and error bars represent standard deviations. Panel b. Structure of our best (lower panel) and the reference (upper panel) MALT1 fluorogenic substrate.
(§1) All kinetic assays were performed with a Spectra Max Gemini XPS spectrofluorimeter (Molecular Devices) and 96-well Corning plates. The measurement characteristics were as follows: 37 °C, excitation/emission wavelength of 355/460 nm, cutoff of 455 nm, and varying concentrations of substrates and enzyme. The assay buffer was prepared at 23 °C and contained 50 mM HEPES (2-[4-(2-hydroxyethyl)piperazin-1-yl]ethanesulfonic acid), 100 mM NaCl, 0.9 M sodium citrate and 10 mM dithiothreitol (DTT) (pH 7.5). MALT1^FL or MALT1^CD were preincubated for 30 minutes at 37 °C before being added to wells containing substrate. Next, the increase in fluorescence was recorded over the time. Only the linear portions of the curves were used for calculations. The kcat and Km values were calculated using GraphPad Prism and Microsoft Excel software. All measurements were repeated three times, and the data presented are averages of these replicates. […]
was carried out after each coupling and Fmoc deprotection step. The N terminus was protected with an acetyl group using 5 eq AcOH, 5 eq HBTU, and 5 eq DIPEA in DMF.
After solvent removal, the resin was washed six times with DMF in order to remove excess reagents, three times with DCM, and three times with MeOH and then dried over P2O5 and cleaved from the resin with a TFA/TIPS/H2O mixture (%, v/v/v, 95:2.5:2.5).
The crude product was purified by HPLC and lyophilized. The purity of each substrate was confirmed by analytical HPLC, and each substrate was analyzed using HRMS.
(§2) Substrates were dissolved in peptide-grade DMSO to a concentration of 20 mM and stored at -80°C until use.
(§3) Calculation of kcat, Km and kcat/Km values
(§4) Kinetic parameters were calculated under the same conditions as the library with slight modification. The total reaction volume in each well was 100 μL. The substrate and enzyme concentrations used ranged from 3.90 μM to 150 μM and 40 μM, respectively.
(§5) The increase in relative fluorescence units was monitored for 20-30 minutes, and only the linear parts of the curves were used to determine the rate of the reaction. The kcat and Km values were calculated using GraphPad Prism software. All measurements were repeated three times using the appropriate concentration of the enzyme, and the data presented are averages of these repetitions.

MALT1^FL = molecular target: T2, MALT1^FL (Homo sapiens, UniProt Q9UDY8); assay: Kinetic assay of IQF substrates, full-length enzyme; settings: IQF substrate, ACC/Lys(Dnp) pair; 37 °C, assay buffer pH 7.5; 355/460 nm; average of three
T2 construct: treating full-length MALT1 (MALT1^FL), the MALT1 catalytic domain (MALT1^CD)
T2 sequence (Q9UDY8 1-824): T1 sequence (Q9UDY8 1-824)
Protocol: as §1, §2, §3, §4, §5

MALT1^CD = molecular target: T3, MALT1^CD (Homo sapiens, UniProt Q9UDY8); assay: Kinetic assay of IQF substrates, catalytic domain; settings: IQF substrate, ACC/Lys(Dnp) pair; 37 °C, assay buffer pH 7.5; 355/460 nm; average of three
T3 construct: the MALT1 catalytic domain (MALT1^CD)
T3 sequence (Q9UDY8 348-562 limits assumed): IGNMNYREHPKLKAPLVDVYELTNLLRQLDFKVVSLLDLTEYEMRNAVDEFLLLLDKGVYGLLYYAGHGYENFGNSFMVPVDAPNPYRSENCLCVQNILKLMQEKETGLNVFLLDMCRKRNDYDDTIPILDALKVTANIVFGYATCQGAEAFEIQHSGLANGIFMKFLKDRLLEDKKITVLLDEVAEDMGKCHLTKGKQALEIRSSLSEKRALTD
Protocol: as §1, §2, §3, §4, §5

[1] = system: MALT1 in RAW 264.7 cell lysates; assay: Labeling of active MALT1 in RAW 264.7 cell lysates; settings: RAW 264.7 lysates pretreated with 1 µL of 10 mM mepazine, then 500 nM PKG105
Protocol: Figure 3 Probe to detect active MALT1. Panel a. Structure of the MALT1 probe (PKG105). Panel b. RAW 264.7 cell lysates were incubated with PKG105 at various concentrations. As a control, lysates were pretreated with mepazine, followed by incubation with probe. Lysates that were not treated with mepazine were also used. SDS-PAGE was performed at 165 V. Fluorescence was scanned using the 700 nm channel (LI-COR). Gels are representative of at least two replicates. TEXT PRINTED IN THE PICTURE: (a) PKG105: kobs/I = 92,000 M^-1s^-1
Twenty-five microliters of RAW 264.7 cell lysates (from 5 * 10^6 cells/mL) were incubated with PKG105 at concentrations ranging from 8 to 500 nM. As controls, cells that were not incubated with probe or cells that were pretreated with 1 µL of 10 mM mepazine were treated with 500 nM PKG105. The lysates were incubated with the probe for 30 minutes at 37 °C, followed by denaturation in 3 × SDS-loading buffer for 5 minutes at 95 °C. SDS-PAGE was performed under reducing conditions for 37 minutes at 165 V. The fluorescence signal in the gel was measured using a Li-Cor (Odyssey®) at a wavelength of 700 nm.

Compound | Km (MALT1) [µM] | kcat (MALT1) [s⁻¹] | kcat/Km, MALT1^FL (MALT1^FL) | kcat/Km, MALT1^CD (MALT1^CD) | effect of inhibitor pretreatment on probe labeling [1]
Ac-KLVSR-{ACC} (SMILES CC(=O)N[C@@H](CCCCN)C(=O)N[C@@H](CC(C)C)C(=O)N[C@H](C(=O)N[C@@H](CO)C(=O)N[C@@H](CCCNC(=N)N)C(=O)Nc1ccc2c(CC(N)=O)cc(=O)oc2c1)C(C)C) [Ac-Lys-LVSR-ACC] | 25.5 ± 3.56 | 0.12 ± 0.0010 |  |  | 
H2N-ACC-Ahx-A-L-V-S-R–G-Thr-K(Dnp)G-OH [Substrate M3] |  |  | 6.3 * 10^3 ± 311 M^−1s^−1 | 2.8 * 10^3 ± 101 M^−1s^−1 | 
H2N-ACC-Ahx-A-L-V-S-R–G-Abu-K(Dnp)G-OH [Substrate M2] |  |  | 5.5 * 10^3 ± 291 M^−1s^−1 | 2.6 * 10^3 ± 38 M^−1s^−1 | 
Ac-RLVSR-{ACC} (SMILES CC(=O)N[C@@H](CCCNC(=N)N)C(=O)N[C@@H](CC(C)C)C(=O)N[C@H](C(=O)N[C@@H](CO)C(=O)N[C@@H](CCCNC(=N)N)C(=O)Nc1ccc2c(CC(N)=O)cc(=O)oc2c1)C(C)C) [Ac-Arg-LVSR-ACC] | 19.06 ± 0.05 | 0.12 ± 0.0003 |  |  | 
Ac-ALVSR-{ACC} (SMILES CC(=O)N[C@@H](C)C(=O)N[C@@H](CC(C)C)C(=O)N[C@H](C(=O)N[C@@H](CO)C(=O)N[C@@H](CCCNC(=N)N)C(=O)Nc1ccc2c(CC(N)=O)cc(=O)oc2c1)C(C)C) [Ac-Ala-LVSR-ACC, reference compound] | 9.45 ± 2.46 | 0.089 ± 0.033 |  |  | 
Ac-[dV]LVSR-{ACC} (SMILES CC(=O)N[C@@H](C(=O)N[C@@H](CC(C)C)C(=O)N[C@H](C(=O)N[C@@H](CO)C(=O)N[C@@H](CCCNC(=N)N)C(=O)Nc1ccc2c(CC(N)=O)cc(=O)oc2c1)C(C)C)C(C)C) [Ac-D-Val-LVSR-ACC] | 19.2 ± 2.5 | 0.15 ± 0.012 |  |  | 
CN1CCCC(CN2c3ccccc3Sc3ccccc32)C1 (stereo not shown) [Mepazine, reference compound] |  |  |  |  | inhibited MALT1

Source: article PMC6207715, “Determination of extended substrate specificity of the MALT1 as a strategy for the design of potent substrates and activity-based probes” (Scientific Reports, 2018)
